Results as given in PubChem BioAssay (NCI).
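Grown in 96-well plates, cells were treated for 48 hours with each compound at five concentrations. Insufficient inhibition: endpoint recorded as highest concentration tested. TGI: concentration producing complete growth inhibition.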

Key:
Assay in all cases: DTP human tumour cell line panel, 48 h
MDA-MB-231 breast = system: MDA-MB-231 breast
SF-295 CNS = system: SF-295 CNS
MDA-N = system: MDA-N
MDA-MB-435 = system: MDA-MB-435
NCI/ADR-RES ovarian = system: NCI/ADR-RES ovarian
SNB-75 CNS = system: SNB-75 CNS
OVCAR-4 ovarian = system: OVCAR-4 ovarian
A549 NSCLC = system: A549 NSCLC
SNB-19 CNS = system: SNB-19 CNS
ACHN renal = system: ACHN renal
MALME-3M melanoma = system: MALME-3M melanoma
SF-268 CNS = system: SF-268 CNS
786-0 renal = system: 786-0 renal
T-47D breast = system: T-47D breast
HS 578T breast = system: HS 578T breast
OVCAR-5 ovarian = system: OVCAR-5 ovarian
CAKI-1 renal = system: CAKI-1 renal
K-562 leukemia = system: K-562 leukemia
BT-549 breast = system: BT-549 breast
SR leukemia = system: SR leukemia
HCC-2998 colon = system: HCC-2998 colon
DU-145 prostate = system: DU-145 prostate
NCI-H23 lung = system: NCI-H23 lung
SK-MEL-28 melanoma = system: SK-MEL-28 melanoma
SW-620 colon = system: SW-620 colon
KM12 colon = system: KM12 colon
IGROV1 ovarian = system: IGROV1 ovarian
UACC-257 melanoma = system: UACC-257 melanoma
SK-MEL-5 melanoma = system: SK-MEL-5 melanoma
NCI-H226 lung = system: NCI-H226 lung
HT29 colon = system: HT29 colon
SK-MEL-2 melanoma = system: SK-MEL-2 melanoma
UO-31 renal = system: UO-31 renal
HOP-92 NSCLC = system: HOP-92 NSCLC
A498 renal = system: A498 renal
U251 CNS = system: U251 CNS
UACC-62 melanoma = system: UACC-62 melanoma
MCF7 breast = system: MCF7 breast
NCI-H460 lung = system: NCI-H460 lung
LOX IMVI melanoma = system: LOX IMVI melanoma
NCI-H522 lung = system: NCI-H522 lung
HCT-116 colon = system: HCT-116 colon
RXF 393 renal = system: RXF 393 renal
OVCAR-8 ovarian = system: OVCAR-8 ovarian
OVCAR-3 ovarian = system: OVCAR-3 ovarian
PC-3 prostate = system: PC-3 prostate
TK-10 renal = system: TK-10 renal
HOP-62 NSCLC = system: HOP-62 NSCLC
SN12C renal = system: SN12C renal
EKVX NSCLC = system: EKVX NSCLC
HCT-15 colon = system: HCT-15 colon
M14 melanoma = system: M14 melanoma
MOLT-4 leukemia = system: MOLT-4 leukemia
HL-60(TB) leukemia = system: HL-60(TB) leukemia
RPMI-8226 leukemia = system: RPMI-8226 leukemia
SK-OV-3 ovarian = system: SK-OV-3 ovarian
COLO 205 colon = system: COLO 205 colon
CCRF-CEM leukemia = system: CCRF-CEM leukemia
SF-539 CNS = system: SF-539 CNS

O=[As](O)(O)c1ccc2nc3cc([As](=O)(O)O)ccc3nc2c1
TGI (MDA-MB-231 breast): > 100 µM
TGI (SF-295 CNS): > 100 µM
TGI (MDA-N): > 100 µM
TGI (MDA-MB-435): > 100 µM
TGI (NCI/ADR-RES ovarian): > 100 µM
TGI (SNB-75 CNS): > 100 µM
TGI (OVCAR-4 ovarian): > 100 µM
TGI (A549 NSCLC): > 100 µM
TGI (SNB-19 CNS): > 100 µM
TGI (ACHN renal): > 100 µM
TGI (MALME-3M melanoma): > 100 µM
TGI (SF-268 CNS): > 100 µM
TGI (786-0 renal): > 100 µM
TGI (T-47D breast): > 100 µM
TGI (HS 578T breast): > 100 µM
TGI (OVCAR-5 ovarian): > 100 µM
TGI (CAKI-1 renal): > 100 µM
TGI (K-562 leukemia): > 100 µM
TGI (BT-549 breast): > 100 µM
TGI (SR leukemia): > 100 µM
TGI (HCC-2998 colon): > 100 µM
TGI (DU-145 prostate): > 100 µM
TGI (NCI-H23 lung): > 100 µM
TGI (SK-MEL-28 melanoma): > 100 µM
TGI (SW-620 colon): > 100 µM
TGI (KM12 colon): > 100 µM
TGI (IGROV1 ovarian): > 100 µM
TGI (UACC-257 melanoma): > 100 µM
TGI (SK-MEL-5 melanoma): > 100 µM
TGI (NCI-H226 lung): > 100 µM
TGI (HT29 colon): > 100 µM
TGI (SK-MEL-2 melanoma): > 100 µM
TGI (UO-31 renal): > 100 µM
TGI (HOP-92 NSCLC): > 100 µM
TGI (A498 renal): > 100 µM
TGI (U251 CNS): > 100 µM
TGI (UACC-62 melanoma): > 100 µM
TGI (MCF7 breast): > 100 µM
TGI (NCI-H460 lung): > 100 µM
TGI (LOX IMVI melanoma): > 100 µM
TGI (NCI-H522 lung): > 100 µM
TGI (HCT-116 colon): > 100 µM
TGI (RXF 393 renal): > 100 µM
TGI (OVCAR-8 ovarian): > 100 µM
TGI (OVCAR-3 ovarian): > 100 µM
TGI (PC-3 prostate): > 100 µM
TGI (TK-10 renal): > 100 µM
TGI (HOP-62 NSCLC): > 100 µM
TGI (SN12C renal): > 100 µM
TGI (EKVX NSCLC): > 100 µM
TGI (HCT-15 colon): > 100 µM
TGI (M14 melanoma): > 100 µM
TGI (MOLT-4 leukemia): > 100 µM

Cc1cc2c(cc1C)C(=O)/C(=N/Nc1ccc(F)cc1)CCO2
TGI (MDA-MB-231 breast): > 100 µM
TGI (SF-295 CNS): > 100 µM
TGI (MDA-N): > 100 µM
TGI (MDA-MB-435): > 100 µM
TGI (NCI/ADR-RES ovarian): > 100 µM
TGI (OVCAR-4 ovarian): > 100 µM
TGI (A549 NSCLC): > 100 µM
TGI (HL-60(TB) leukemia): > 100 µM
TGI (SNB-19 CNS): > 100 µM
TGI (ACHN renal): > 100 µM
TGI (MALME-3M melanoma): > 100 µM
TGI (SF-268 CNS): > 100 µM
TGI (786-0 renal): > 100 µM
TGI (T-47D breast): > 100 µM
TGI (HS 578T breast): > 100 µM
TGI (OVCAR-5 ovarian): > 100 µM
TGI (CAKI-1 renal): > 100 µM
TGI (K-562 leukemia): > 100 µM
TGI (BT-549 breast): > 100 µM
TGI (SR leukemia): > 100 µM
TGI (HCC-2998 colon): > 100 µM
TGI (RPMI-8226 leukemia): > 100 µM
TGI (SK-OV-3 ovarian): > 100 µM
TGI (DU-145 prostate): > 100 µM
TGI (NCI-H23 lung): > 100 µM
TGI (SK-MEL-28 melanoma): > 100 µM
TGI (SW-620 colon): > 100 µM
TGI (KM12 colon): > 100 µM
TGI (IGROV1 ovarian): > 100 µM
TGI (UACC-257 melanoma): > 100 µM
TGI (SK-MEL-5 melanoma): > 100 µM
TGI (NCI-H226 lung): > 100 µM
TGI (HT29 colon): > 100 µM
TGI (SK-MEL-2 melanoma): 97 µM
TGI (UO-31 renal): > 100 µM
TGI (HOP-92 NSCLC): > 100 µM
TGI (COLO 205 colon): > 100 µM
TGI (A498 renal): > 100 µM
TGI (U251 CNS): > 100 µM
TGI (UACC-62 melanoma): > 100 µM
TGI (MCF7 breast): > 100 µM
TGI (NCI-H460 lung): > 100 µM
TGI (LOX IMVI melanoma): > 100 µM
TGI (NCI-H522 lung): > 100 µM
TGI (HCT-116 colon): > 100 µM
TGI (OVCAR-8 ovarian): > 100 µM
TGI (OVCAR-3 ovarian): > 100 µM
TGI (PC-3 prostate): > 100 µM
TGI (TK-10 renal): > 100 µM
TGI (HOP-62 NSCLC): > 100 µM
TGI (SN12C renal): > 100 µM
TGI (EKVX NSCLC): > 100 µM
TGI (HCT-15 colon): > 100 µM
TGI (CCRF-CEM leukemia): > 100 µM
TGI (M14 melanoma): > 100 µM
TGI (SF-539 CNS): > 100 µM
TGI (MOLT-4 leukemia): > 100 µM

O=C(CN(c1ccc(S(=O)(=O)O)cc1)c1ccc(S(=O)(=O)O)cc1)Nn1cnc2ccc(S(=O)(=O)N(c3ccc(S(=O)(=O)O)cc3)c3ccc(S(=O)(=O)O)cc3)cc2c1=O
TGI (MDA-MB-231 breast): > 100 µM
TGI (SF-295 CNS): > 100 µM
TGI (MDA-N): > 100 µM
TGI (MDA-MB-435): > 100 µM
TGI (NCI/ADR-RES ovarian): > 100 µM
TGI (SNB-75 CNS): > 100 µM
TGI (OVCAR-4 ovarian): > 100 µM
TGI (A549 NSCLC): > 100 µM
TGI (HL-60(TB) leukemia): > 100 µM
TGI (SNB-19 CNS): > 100 µM
TGI (ACHN renal): > 100 µM
TGI (MALME-3M melanoma): > 100 µM
TGI (SF-268 CNS): > 100 µM
TGI (786-0 renal): > 100 µM
TGI (T-47D breast): > 100 µM
TGI (HS 578T breast): > 100 µM
TGI (OVCAR-5 ovarian): > 100 µM
TGI (CAKI-1 renal): > 100 µM
TGI (K-562 leukemia): > 100 µM
TGI (BT-549 breast): > 100 µM
TGI (SR leukemia): > 100 µM
TGI (HCC-2998 colon): > 100 µM
TGI (RPMI-8226 leukemia): > 100 µM
TGI (SK-OV-3 ovarian): > 100 µM
TGI (DU-145 prostate): > 100 µM
TGI (NCI-H23 lung): > 100 µM
TGI (SK-MEL-28 melanoma): > 100 µM
TGI (SW-620 colon): > 100 µM
TGI (KM12 colon): > 100 µM
TGI (IGROV1 ovarian): > 100 µM
TGI (UACC-257 melanoma): > 100 µM
TGI (SK-MEL-5 melanoma): > 100 µM
TGI (NCI-H226 lung): > 100 µM
TGI (HT29 colon): > 100 µM
TGI (SK-MEL-2 melanoma): > 100 µM
TGI (UO-31 renal): > 100 µM
TGI (HOP-92 NSCLC): > 100 µM
TGI (COLO 205 colon): > 100 µM
TGI (A498 renal): > 100 µM
TGI (U251 CNS): > 100 µM
TGI (UACC-62 melanoma): > 100 µM
TGI (MCF7 breast): > 100 µM
TGI (NCI-H460 lung): > 100 µM
TGI (LOX IMVI melanoma): > 100 µM
TGI (NCI-H522 lung): > 100 µM
TGI (HCT-116 colon): > 100 µM
TGI (RXF 393 renal): > 100 µM
TGI (OVCAR-8 ovarian): > 100 µM
TGI (OVCAR-3 ovarian): > 100 µM
TGI (PC-3 prostate): > 100 µM
TGI (TK-10 renal): > 100 µM
TGI (HOP-62 NSCLC): > 100 µM
TGI (SN12C renal): > 100 µM
TGI (EKVX NSCLC): > 100 µM
TGI (HCT-15 colon): > 100 µM
TGI (CCRF-CEM leukemia): > 100 µM
TGI (M14 melanoma): > 100 µM
TGI (SF-539 CNS): > 100 µM
TGI (MOLT-4 leukemia): > 100 µM
